From publication PMC6382874, “Succinylation-dependent mitochondrial translocation of PKM2 promotes cell survival in response to nutritional stress” (Cell Death & Disease, 2019) come the findings set out here.

The test system of one test is VDAC3. Nature of the test: VDAC3 protein level (western blot) in HCT116 cells. Particulars: 10 or 20 µM, 8 h. In kind it is cell-based, human. An excerpt: HCT116 cell lysates were subject to immunoprecipitation with control IgG and anti-VDAC3 antibodies. d, e In vitro binding assay of purified His-tagged-PKM2 and GST-tagged-VDAC3. f K433E enhanced the interaction of PKM2 and VDAC3. Stagged-WT PKM2, a succinylation mimic K433E and a succinylation null mutant K433R and flag-VDAC3 were co-transfected into HCT116 cells for Stag bead pull down that specially pulls down Stagged proteins. g Glucose starvation enhanced the interaction of PKM2 and VDAC3. […]
Fig. 6 Compound 8 blocks PKM2 mitochondrial translocation under nutritional stress and inhibits tumor growth in vivo. a Compound 8 blocks glucose starvation induced PKM2 mitochondrial translocation. […] HCT116 cells were transfected with HA-tagged PKM2, cells were harvested and subjected to stag pull down after 8 h 20 µM compound 8 treatment. c Compound 8 induces VDAC3 for degradation. cells were harvested and evaluated VDAC3 protein levels after 8 h 10 or 20 µM compound 8 treatment. d, e Compound 8 caused a decrease in the rate of NADH oxidation. […] NAD/NADH ratios in HCT116 cell lysates were evaluated by LC–MS. f Compound 8 inhibited ATP production in HCT116 cells. g The tumor volume (n = 7) of HCT116 xenografts from mice with intraperitoneal injection of compound 8 and vehicle control […]
(In general: A western blot detects proteins with antibodies after separation by electrophoresis.)

A further test deals with MCF7 cells. Nature of the test: cell viability test, MCF7. Format: cell-based. Particulars: cell viability, 48 h, read-out: IC50 (MCF7). The method, then:
(§1) We assessed the anti-tumor effects of compound 8 by evaluation of cancer cell viability. Compound 8 reduced cell viability with an IC50 of about 5 µM in MTT reduction assays in HCT116, MCF7, and H1299 cells (Table 2). […] To determine whether cancer cell death brought about by compound 8 is PKM2 dependent, PKM2 was knocked down in HCT116 cells using two different shRNA sequences that specifically targeted exon 10 without interfering with PKM1 expression. Compound 8 is an inhibitor which causes a loss of function of PKM2. If PKM2 is a specially targeted by compound 8, its knockdown should render cells more vulnerable to compound 8-mediated PKM2 inhibition since shRNA and compound 8 work synergistically by reducing the intracellular drug target concentration.
(§2) Cells were seeded in 96-well plates at 5000 cells/well in DMEM media overnight. Cells were treated with different concentrations of test compound for 48 h at 37 °C in 5% CO2. Cell viability was assayed with the MTS assay (Promega) and trypan blue staining according to the manufacturer’s instructions.

A further test concerns HCT116 xenografts. Nature of the test: HCT116 xenograft tumor growth in nude mice. Particulars: 15mg/kg, intraperitoneal, once every two days. Format: in vivo, nude mice (BALB/C). The method, then:
All animal procedures were performed in accordance with guidelines approved by the Animal Experimentation Ethics Committee of Peking University. Female nude mice (BALB/C, 4–6 weeks old) were injected with 2.0 × 10^6 HCT116 cells subcutaneously in the armpit. Approximately, 10 days later, pairs of mice (N = 7) were injected with compound 8 or vehicle control. Intraperitoneal injection was performed in the mouse. The animals were injected once every two days. Tumor measurements were performed once every 2 days. Tumor volume was calculated using the following equation: V = L(S2)π/6, where L is the longer and S is the shorter of the two tumor dimensions.

The subject of the next test is HCT116 cells. The test is described as follows: cell viability test, HCT116. In kind it is cell-based, human. Particulars: cell viability, 48 h, read-out: IC50 (HCT116). The method, then: as §1, §2

Like-named read-outs stand apart in the source and are kept apart here.

For `CCCN(CCC)P(N)(=O)OCC1=CC(=O)c2ccccc2C1=O` (stereo not drawn) [Compound 8], the VDAC3 protein level entry in the test with VDAC3 is on record as “caused VDAC3 degradation”. Further, the concentration for half-maximal inhibition (IC50) was ~5 µM in the test on MCF7 cells (Homo sapiens, MCF7, 48 h); 5.4 ± 1.14 µM in the test on MCF7 cells; ~5 µM in the test with HCT116 cells (Homo sapiens, HCT-116, 48 h); 5.19 ± 1.74 µM with HCT116 cells. In addition, the “colon cancer xenograft growth (tumor volume)” value in the test with HCT116 xenografts is “significantly reduced”.

As usually defined, the IC50 is the point on the concentration scale where inhibition reaches its midpoint.
